Test results from ChEMBL document CHEMBL1158968, “Novel cytotoxic principles of Formosan Ganoderma lucidum” (1991).
In brackets after ≈: the same amount, converted by molar mass.

Key:
[1] = system: KB; assay: Cytotoxicity against human KB cells after 4 days; assay type: functional; conditions: 96 h, read-out: ED50 (the source's name)
[2] = Cytotoxicity against human PLC/PRF/5 cells after 4 days; assay type: functional; conditions: PLC-PRF-5, 96 h, read-out: ED50 (the source's name)

SMILES | EC50 [1] [µg/mL] | EC50 [2] [µg/mL]
C/C(=C\CC[C@@H](C)[C@H]1CC[C@@]2(C)C3=C(C(=O)C[C@]12C)[C@@]1(C)CC[C@H](O)C(C)(C)[C@@H]1CC3)CO [2H-GANODERIC ALDEHYDE A] | 8.27 (≈ 18.1 µM) | 10.7 (≈ 23.5 µM)
C/C(C=O)=C\CC[C@@H](C)[C@H]1CC[C@@]2(C)C3=C(C(=O)C[C@]12C)[C@@]1(C)CC[C@H](O)C(C)(C)[C@@H]1CC3 [GANODERIC ALDEHYDE A] | 1.25 (≈ 2.75 µM) | 2.54 (≈ 5.59 µM)
CC(C)[C@@H](C)/C=C/[C@@H](C)[C@H]1CC[C@@H]2[C@]1(C)CC[C@H]1[C@]23C=C[C@]2(C[C@@H](O)CC[C@]12C)OO3 [ERGOSTEROL PEROXIDE] | 9.79 (≈ 22.8 µM) | 11 (≈ 25.6 µM)
